What is called Ki is a measure of affinity in units of concentration, obtained from inhibition or displacement.

In this assay the target is HIV-1 protease (Human immunodeficiency virus type 1 group M subtype B, UniProt P04585). The assay can be described thus: Inhibition constants against HIV-1 protease (method of Pennington et al.). The format is biochemical. As to conditions: HIV-1 protease; read-out: Ki value. The source says:
We measured the inhibition constants of the compounds listed in Table VII against HIV-1 protease using the above-cited method of Pennington et al.
`CC(=O)Nc1cccc(S(=O)(=O)N(CC(C)C)C[C@@H](O)[C@H](Cc2ccccc2)NC(=O)[C@H](CC(N)=O)NC(=O)c2ccc3ccccc3n2)c1` [Compound 19, (S)-N-1-(3-((3-Acetylamino-benzenesulfonyl)-isobutyl-amino)-(1S,2 syn)-1-benzyl-2-hydroxy-propyl)-2-((quinoline-2-carbonyl)-amino)-succinamide]: the inhibition constant (Ki) was under 0.1 nM.
For `CC(C)CN(C[C@@H](O)[C@H](Cc1ccccc1)NC(=O)O[C@H]1CCOC1)S(=O)(=O)c1cccnc1` [Compound 1003] the value was 8 nM.
As to `COC(=O)N[C@@H](Cc1ccccc1)[C@H](O)CN(CC(C)C)S(=O)(=O)c1ccc(Cl)c(Cl)c1` [Compound 103], the Ki was 4.5 nM.
Turning to `O=C(N[C@@H](Cc1ccccc1)[C@H](O)CN(CC1CCCC1)S(=O)(=O)c1cccnc1)O[C@H]1CCOC1` [Compound 149, Pyridine-3-sulfonic acid cyclopentylmethyl-((2 syn,3S)-2-hydroxy-4-phenyl-3-((S)-tetrahydrofuran-3-yloxycarbonylamino)-butyl)-amide], the Ki is 1.7 nM.
As for `COc1ccc(S(=O)(=O)N(CC(C)C)C[C@@H](O)[C@H](Cc2ccccc2)NC(=O)OCc2ccncc2)cc1` [Compound 163, N-((2 syn,3S)-2-Hydroxy-4-phenyl-3-(pyridin-4-yl-methoxycarbonylamino)-butyl)-N-isobutyl-4-methoxy-benzenesulfonamide], the figure is 0.5 nM.
For `Nc1ccc(S(=O)(=O)N(CC2CCCC2)C[C@@H](O)[C@H](Cc2ccccc2)NC(=O)O[C@H]2CCOC2)cc1` [Compound 171, 4-Amino-N-cyclopentylmethyl-N-((2 syn,3S)-2-hydroxy-4-phenyl-3-((S)-tetrahydrofuran-3-yloxycarbonylamino)-butyl)-benzenesulfonamide] the value was 0.2 nM; for `COc1ccc(S(=O)(=O)N(C[C@@H](O)[C@H](Cc2ccccc2)NC(=O)O[C@H]2CCOC2)CC(C)(C)O)cc1` [Compound 1010], 20 nM.
In the case of `CC(C)CN(C[C@@H](O)[C@H](Cc1ccccc1)NC(=O)O[C@H]1CCOC1)S(=O)(=O)c1ccc(OCc2ccccc2)cc1` [Compound 174], the Ki is 10 nM.
As to `Cc1nc(C)c(S(=O)(=O)N(CC(C)C)C[C@@H](O)[C@H](Cc2ccccc2)NC(=O)OC(C)(C)C)s1` [Compound 46], the Ki worked out at 154 nM.
With `CC(C)CN(C[C@@H](O)[C@H](Cc1ccccc1)NC(=O)O[C@H]1CCOC1)S(=O)(=O)c1ccc(O)cc1` [Compound 175], the Ki came to 0.1 nM.
On to `O=C(N[C@@H](Cc1ccccc1)[C@H](O)CN(CC1CCCCC1)S(=O)(=O)c1ccc(F)cc1)O[C@H]1CCOC1` [Compound 159, N-Cyclohexylmethyl-4-fluoro-N-((2 syn,3S)-2-hydroxy-4-phenyl-3-((S)-tetrahydrofuran-3-yloxycarbonylamino)-butyl)-benzenesulfonamide], for which the Ki turned out to be 0.2 nM.
For `CC(=O)Nc1ccc(S(=O)(=O)N(CC(C)C)C[C@@H](O)[C@H](Cc2ccccc2)NC(=O)OC(C)(C)C)cc1` [Compound 39] the value was 17 nM.
For `CC(=O)Nc1ccc(S(=O)(=O)N(Cc2ccco2)C[C@@H](O)[C@H](Cc2ccccc2)NC(=O)O[C@H]2CCOC2)cc1` [Compound 137], the Ki was found to be 26 nM.
Take `CC(C)CN(C[C@@H](O)[C@H](Cc1ccccc1)NC(=O)OC(C)(C)C)S(=O)(=O)c1ccc2nonc2c1` [Compound 64]: the inhibition constant (Ki) is 3 nM.
Consider `CC(=O)Nc1ccc(S(=O)(=O)N(CC(C)C)C[C@@H](O)[C@H](Cc2ccccc2)NC(=O)C(=O)NC(C)(C)C)cc1` [Compound 41], for which the Ki stood at 220 nM.
With `COc1ccc(S(=O)(=O)N(C[C@@H](O)[C@H](Cc2ccccc2)NC(=O)O[C@H]2CCOC2)C2CCNCC2)cc1` [Compound 1011], the inhibition constant Ki came to 1500 nM.
For `CCCOC(=O)N[C@@H](Cc1ccccc1)[C@H](O)CN(CC(C)C)S(=O)(=O)c1ccc(NC(C)=O)c(Cl)c1` [Compound 90] the value was 93 nM; for `CC(C)CN(C[C@@H](O)[C@H](Cc1ccccc1)NC(=O)O[C@H]1CCOC1)S(=O)(=O)c1ccc(F)cc1` [Compound 35, 4-Fluoro-N-((2 syn,3S)-2-hydroxy-4-phenyl-3-((S)-tetrahydrofuran-3-yloxycarbonylamino)-butyl)-N-isobutyl-benzenesulfonamide], 4 nM; for `O=C(N[C@@H](Cc1ccccc1)[C@H](O)CN(CC1CCCC1)S(=O)(=O)c1ccccc1)O[C@H]1CCOC1` [Compound 148, N-Cyclopentylmethyl-N-((2 syn,3S)-2-hydroxy-4-phenyl-3-((S)-tetrahydrofuran-3-yloxycarbonylamino)-butyl)-benzenesulfonamide], 0.2 nM.
Turning to `CC(=O)Nc1ccc(S(=O)(=O)N(C)C[C@@H](O)[C@H](Cc2ccccc2)NC(=O)O[C@H]2CCOC2)cc1` [Compound 101], the Ki was 250 nM.
As for `NC(=O)C[C@H](NC(=O)c1ccc2ccccc2n1)C(=O)N[C@@H](Cc1ccccc1)[C@H](O)CN(Cc1ccccc1)S(=O)(=O)c1cccc(S(N)(=O)=O)c1` [Compound 10, N-1-(1-(S)-Benzyl-3-(benzyl-(3-sulfamoyl-benzenesulfonyl)-amino)-2-(syn)-hydroxy-propyl)-2-((quinoline-2-carbonyl)-amino)-succinamide], the Ki worked out at 4 nM.
As for `CC(=O)Nc1ccc(S(=O)(=O)N(CC(C)C)C[C@@H](O)[C@H](Cc2ccccc2)NC(=O)[C@@H]2CCC(=O)N2)cc1` [Compound 43], the figure is 4200 nM.
Regarding `Cc1noc(C)c1S(=O)(=O)N(Cc1ccccc1)C[C@@H](O)[C@H](Cc1ccccc1)NC(=O)[C@H](CC(N)=O)NC(=O)c1ccc2ccccc2n1` [Compound 3], the Ki amounted to 32 nM.
Take `COc1ccc(S(=O)(=O)N(CC2CCCC2)C[C@@H](O)[C@H](Cc2ccccc2)NC(=O)OCc2cccc(OC)c2)cc1` [Compound 178]: the Ki is 0.1 nM.
As for `CC(=O)Nc1ccc(S(=O)(=O)N(CC(C)C)C[C@@H](O)[C@H](Cc2ccccc2)NC(=O)CCC(N)=O)cc1` [Compound 42], the figure is 46 nM; as for `COc1ccc(S(=O)(=O)N(C[C@@H](O)[C@H](Cc2ccccc2)NC(=O)O[C@H]2CCOC2)CN2CCCCC2)cc1` [Compound 1013], 1500 nM.
For `O=C(N[C@@H](Cc1ccccc1)[C@H](O)CN(CC1CCCC1)S(=O)(=O)c1ccc(O)cc1)OCc1cccnc1` [Compound 166, N-cyclopentylmethyl-4-hydroxy-N-((2 syn,3S)-2-hydroxy-4-phenyl-3-(pyridin-3-yl-methoxycarbonylamino)-butyl)-benzenesulfonamide] the value was under 0.1 nM; for `NC(=O)C[C@H](NC(=O)c1ccc2ccccc2n1)C(=O)N[C@@H](Cc1ccccc1)[C@H](O)CN(Cc1ccccc1)S(=O)(=O)c1cccc(C(=O)O)c1` [Compound 7], 8 nM.
As for `CC(C)CN(C[C@@H](O)[C@H](Cc1ccccc1)NC(=O)O[C@H]1CCOC1)S(=O)(=O)c1ccoc1` [Compound 113], the figure is 3 nM; as for `CC(C)CN(C[C@@H](O)[C@H](Cc1ccccc1)NC(=O)O[C@H]1CCOC1)S(=O)(=O)c1cccc2nonc12` [Compound 60], 4 nM; as for `O=C(N[C@@H](Cc1ccccc1)[C@H](O)CN(CC1CCCC1)S(=O)(=O)c1ccc([N+](=O)[O-])cc1[N+](=O)[O-])O[C@H]1CCOC1` [Compound 172], 21 nM.
As to `CC(C)(C)OC(=O)N[C@@H](Cc1ccccc1)[C@H](O)CN(CC1CC1)S(=O)(=O)c1ccc(F)cc1` [Compound 74], the Ki came to 11 nM.
For `CC(=O)Nc1cccc(S(=O)(=O)N(CC(C)C)C[C@@H](O)[C@H](Cc2ccccc2)NC(=O)O[C@H]2CCOC2)c1` [Compound 91, N-(3-(((2 syn,3S)-2-Hydroxy-4-phenyl-3-((S)-tetrahydrofuran-3-yloxycarbonylamino)-butyl)-isobutyl-sulfamoyl)-phenyl)-acetamide] the value was 2.5 nM.
Turning to `C=CCOC(=O)N[C@@H](Cc1ccccc1)[C@H](O)CN(CC1CCCC1)S(=O)(=O)c1ccc(Cl)cc1` [Compound 117], the inhibition constant Ki turned out to be 0.26 nM.
As for `CC(C)(C)OC(=O)NC(Cc1ccccc1)C(O)CN(CC1CCCO1)S(=O)(=O)c1ccc(F)cc1` (centres unmarked) [Compound 129], the figure is 19 nM; as for `CC(=O)Nc1ccc(S(=O)(=O)N(CC(C)C)C[C@@H](O)[C@H](Cc2ccccc2)NC(=O)[C@@H](NC(=O)OCc2ccccn2)C(C)C)cc1` [Compound 22], 1 nM.
As for `CC(C)CN(C[C@@H](O)[C@H](Cc1ccccc1)NC(=O)O[C@H]1CCOC1)S(=O)(=O)c1ccc(Cl)cc1` [Compound 99, 4-Chloro-N-((2 syn,3S)-2-hydroxy-4-phenyl-3-((S)-tetrahydrofuran-3-yloxycarbonylamino)-butyl)-isobutyl-benzenesulfonamide], the figure is 0.24 nM; as for `COc1ccc(S(=O)(=O)N(CC(C)C)C[C@@H](O)[C@H](Cc2ccccc2)NC(=O)O[C@H]2CCOC2)cc1` [Compound 100, N-((2 syn,3S)-2-Hydroxy-4-phenyl-3-((S)-tetrahydrofuran-3-yloxycarbonylamino)-butyl)-N-isobutyl-4-methoxy-benzenesulfonamide], 0.16 nM; as for `CCOC(=O)N[C@@H](Cc1ccccc1)[C@H](O)CN(CC(C)C)S(=O)(=O)c1ccc(Cl)c(Cl)c1` [Compound 119], 1.8 nM.
As to `C=CCOC(=O)N[C@@H](Cc1ccccc1)[C@H](O)CN(CC1CCCC1)S(=O)(=O)c1ccc2c(c1)CCN2C(C)=O` [Compound 156], the inhibitory constant (Ki) turned out to be 2.8 nM.
For `CC(C)CN(CC(O)C(Cc1ccccc1)NC(=O)C(CC(N)=O)NC(=O)c1ccc2ccccc2n1)S(=O)(=O)c1ccc(-c2ccon2)s1` (centres unmarked) [Compound 194] the value was 350 nM; for `CC(C)CN(C[C@@H](O)[C@H](Cc1ccccc1)NC(=O)OCc1ccccc1)S(=O)(=O)c1ccc(F)cc1` [Compound 38], 1.5 nM.
Take `CC(=O)Nc1cc(S(=O)(=O)N(CC(C)C)C[C@@H](O)[C@H](Cc2ccccc2)NC(=O)OC(C)(C)C)ccc1F` [Compound 54]: the inhibitory constant (Ki) is 22 nM.
On to `COCCOC(=O)N[C@@H](Cc1ccccc1)[C@H](O)CN(CC(C)C)S(=O)(=O)c1ccc(NC(C)=O)cc1` [Compound 34], for which the Ki worked out at 17 nM.
